US7553848B2, “Vanilloid receptor ligands and their use in treatments” (Amgen Inc., priority 2004, dated 2009)

Structure (SMILES) | melting point [°C]
CC(C)(C)c1ccc2c(c1)CN[C@H](C(=O)Nc1ccc3c(c1)OCCO3)C2.Cl | 134
CC(=O)Nc1nc2c(NC(=O)c3cc4ccc(C(F)(F)F)cc4s3)cccc2s1 | 285.4 to 285.9
CC(=O)Nc1nc2c(NC(=O)c3ccc4cc(Br)ccc4c3)cccc2s1 [Example 4, 6-Bromo-naphthalene-2-carboxylic acid (2-acetylamino-benzothiazol-4-yl)-amide] | 241.6
CC(C)(C)c1ccc2cc(C(=O)Nc3ccc4c(c3)OCCO4)ncc2c1 [Example 11, 7-tert-Butyl-isoquinoline-3-carboxylic acid (2,3-dihydro-benzo[1,4]dioxin-6-yl)-amide] | 154 to 157
O=C(Nc1ccc2c(c1)OCCO2)c1ccc2cc(Br)ccc2c1 [Example 14, 6-Bromo-naphthalene-2-carboxylic acid (2,3-dihydro-benzo[1,4]dioxin-6-yl)-amide] | 222.7

Continued, values first:

melting point [°C] | Structure (SMILES)
247 | O=C(Nc1ccc2c(c1)OCCO2)c1cc2ncc(C(F)(F)F)cc2s1 [Example 12, 6-Trifluoromethyl-thieno[3,2-b]pyridine-2-carboxylic acid (2,3-dihydro-benzo[1,4]dioxin-6-yl)-amide]
296 | O=C(Nc1ccc2c(c1)OCCO2)c1cnc2cc(C(F)(F)F)ccc2c1Cl [Example 13, 4-Chloro-7-trifluoromethyl-quinoline-3-carboxylic acid (2,3-dihydro-benzo[1,4]dioxin-6-yl)-amide]
